# From PubChem BioAssay (NCI)
# “And” between values parts separate entries of the source, which are not always exact repeats. Equal values may be shown once.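 Five compound concentrations were applied to cells in 96-well plates for 48 hours; endpoints were derived by simple linear interpolation of the resulting dose-response curve. GI50: concentration for 50% inhibition of growth. TGI is the concentration that stops growth completely.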
# Tests used:
# Assay in all cases: DTP human tumour cell line panel, 48 h
# DU-145 prostate = test system: DU-145 prostate
# IGROV1 ovarian = test system: IGROV1 ovarian
# SF-295 CNS = test system: SF-295 CNS
# SK-MEL-5 melanoma = test system: SK-MEL-5 melanoma
# TK-10 renal = test system: TK-10 renal
# UO-31 renal = test system: UO-31 renal
# MALME-3M melanoma = test system: MALME-3M melanoma
# RXF 393 renal = test system: RXF 393 renal
SMILES,TGI (DU-145 prostate),TGI (IGROV1 ovarian),TGI (SF-295 CNS),TGI (SK-MEL-5 melanoma),TGI (TK-10 renal),TGI (UO-31 renal),GI50 (DU-145 prostate),GI50 (IGROV1 ovarian),GI50 (MALME-3M melanoma),TGI (MALME-3M melanoma),GI50 (RXF 393 renal),TGI (RXF 393 renal),GI50 (SF-295 CNS),GI50 (SK-MEL-5 melanoma),GI50 (TK-10 renal),GI50 (UO-31 renal)
CCCC(=O)Nc1cc([N+](=O)[O-])c([N+](=O)[O-])cc1OC,31.6 µM,38.9 µM,21.7 µM,30.2 µM,31 µM,3.13 µM,,,,,,,,,,
CC(C)(C)c1cn2cccc(C(=O)N3CCN(CC(=O)Nc4ccc(Cl)cc4C(=O)c4ccccc4Cl)CC3)c2n1,27.5 µM,38.5 µM,7.18 µM,12.7 µM,> 100 µM,74.7 µM,11.7 µM,16.4 µM,19.9 µM,38.8 µM,1.71 µM,6.34 µM,4.05 µM,3.62 µM,16 µM,22.4 µM
O=C(Nc1cccc([N+](=O)[O-])c1)c1ccc2ccccc2c1O,> 100 µM,46 µM,> 82.8 µM,6.41 µM,> 47.4 µM,> 53 µM,7.58 µM,13.8 µM,1.58 µM,6.28 µM,3.37 µM,> 35.4 µM,3.47 µM,1.75 µM,4.59 µM,3.35 µM
COc1cc(OC)c2cc(C(=O)O)c(=O)oc2c1,> 100 µM,> 100 µM,> 100 µM,> 100 µM,> 100 µM,> 100 µM,> 100 µM,> 84.9 µM,> 100 µM,> 100 µM,> 100 µM,> 100 µM,42.2 µM,> 100 µM,> 74.5 µM,> 61.7 µM
CO/N=C(\COc1ccc2c(c1)oc(=O)c1cc(OC)ccc12)c1ccc(F)cc1,62.2 µM,42.8 µM,87.5 µM,> 100 µM,29.5 µM,32.3 µM,22.8 µM,19.3 µM,26.7 µM,84.6 µM,35.1 µM,> 100 µM,24.1 µM,55.6 µM,14.7 µM,12.7 µM
COc1cc(/C=C/C(=O)C(C(=O)/C=C/c2ccc(OC(=O)CCNc3nnc(C)s3)c(OC)c2)C(=O)CCNc2nnc(C)s2)ccc1OC(=O)CCNc1nnc(C)s1,5.61 µM,4.47 µM,20.2 µM,4.52 µM,13.7 µM,3.67 µM,2.27 µM,1.98 µM,2.72 µM,6.51 µM,1.3 µM,3.22 µM,6.8 µM,1.87 µM,4.03 µM,1.62 µM
COC(=O)c1oc2c(O)c(OC)c(Br)cc2c1C,,91.6 µM,70.2 µM,43.5 µM,40 µM,> 100 µM,,32.7 µM,,,28.6 µM,67.1 µM,31 µM,22.2 µM,18.3 µM,46.9 µM
CC1CC(C)/C(=N/NC(N)=O)C(C(O)CC2CCC(=O)NC2=O)C1 (configuration not stated),52.6 µM,56.5 µM,13.5 µM,34.8 µM,10.2 µM,34.3 µM,3.78 µM,2.64 µM,3.21 µM,41.8 µM,3.21 µM,31.7 µM,1.68 µM,2.85 µM,1.64 µM,2.33 µM
CC(C)=CC(O)C/C(C)=C/CC/C(C)=C/CCC1(C)C(CCCO)/C(=C(/C)C=O)CCC1(C)O (configuration not stated),> 100 µM,61.7 µM,> 100 µM,> 100 µM,> 100 µM,> 100 µM,,,,> 100 µM,,90.6 µM,,,,
O=C(Nc1ccc(Cl)cc1)c1ccc([N+](=O)[O-])o1,11.4 µM,11.2 µM,12.3 µM,13.2 µM,5.32 µM,2.96 µM,3.95 µM,3.25 µM,2.25 µM,5.21 µM,1.34 µM,3.42 µM,3.29 µM,3.42 µM,2.4 µM,1.38 µM
NC(N)=N/N=C(/c1ccccc1)c1ccc(Cl)cc1,24.8 µM,82.5 µM,> 100 µM,44.9 µM,> 100 µM,> 100 µM,4.89 µM,10.6 µM,53.3 µM,> 100 µM,12.3 µM,59.9 µM,10.3 µM,5.97 µM,32 µM,17.2 µM
Nc1nc(Cl)c(N=Nc2ccc(Cl)cc2)c(NCC2(CO)CC(OCc3ccccc3)C2)n1 (configuration not stated),92.2 µM and > 100 µM and 26.5 µM,70.3 µM and > 100 µM and 29.9 µM,99.5 µM and > 100 µM and 30.8 µM,21 µM and > 100 µM and 38.7 µM,46.9 µM and > 100 µM and 24.3 µM,12.5 µM and 6.43 µM,6.16 µM and 14.6 µM and 4.62 µM,,17.9 µM and 10.1 µM,33.3 µM,5.17 µM and > 48.3 µM and 8.18 µM,19.7 µM and > 100 µM and 25.6 µM,22.2 µM and 45 µM and 13.4 µM,,,3.27 µM
CCOCC(=O)N[C@H]1CCc2cc(OC(=O)COCC)c(OC)c(OC)c2-c2ccc(SC)c(=O)cc21,,> 100 µM,,,> 100 µM,> 100 µM,0.0315 µM,0.0382 µM,,> 100 µM,,> 100 µM,0.0198 µM,,14.9 µM,0.68 µM
COc1cc(C2CC(c3ccc(Nc4ccnc5cc(Cl)ccc45)cc3)=NN2C=O)cc(OC)c1OC (configuration not stated),> 100 µM,> 100 µM,27.7 µM,6.28 µM,9.4 µM,21.3 µM,6.63 µM,22.3 µM,3.2 µM,8.32 µM,2.22 µM,8.01 µM,5.63 µM,1.98 µM,3.09 µM,4.96 µM
Cc1nc(N)sc1N=Nc1cc(Cl)c([N+](=O)[O-])cc1Cl,32.5 µM,47.2 µM,54.6 µM,19.4 µM,52.1 µM,66.9 µM,,,,32.7 µM,,> 100 µM,,,,
COc1ccc(Cn2cnc3cc(C(=O)Nc4cccc5ccccc45)ccc32)c(OC)c1,3.36 µM,> 100 µM,> 100 µM,6.71 µM,> 100 µM,> 100 µM,0.0439 µM,0.0653 µM,0.0614 µM,> 100 µM,0.0355 µM,> 100 µM,0.0341 µM,0.0502 µM,1.17 µM,0.0759 µM
C/C1=C\CC[C@@]2(C)O[C@@H]2C[C@@H]2[C@H](C/C(C)=C/CC1)OC(=O)C21CCN=N1 (some centres not stated),> 100 µM,> 100 µM,75 µM and > 100 µM,75 µM and > 100 µM,> 100 µM,> 100 µM,> 100 µM,> 100 µM,,> 75 µM,> 100 µM,> 100 µM,> 100 µM,> 100 µM,> 100 µM,> 100 µM
